According to ChEMBL document CHEMBL3997765 (Medchemcomm, 2016):

Tests used:
[1] = target: Mitogen-activated protein kinase 14 (Homo sapiens, UniProt Q16539); test: Inhibition of full length recombinant human GST-tagged p38alpha expressed in Escherichia coli at 10 uM using Ser/Thr04 peptide as substrate in presence of inactive MAPKAPK2 after 1 hr by FRET assay relative to control
[2] = target: RAC-alpha serine/threonine-protein kinase (Homo sapiens) (UniProt P31749); test: Inhibition of full length recombinant human His-tagged PKBalpha expressed in baculovirus expression system at 10 uM by Z'-LYTE assay relative to control
[3] = target: Tyrosine-protein kinase BTK (Homo sapiens) (UniProt Q06187); test: Inhibition of recombinant human His-tagged BTK cytoplasmic domain expressed in baculovirus expression system at 10 uM by Z'-LYTE assay relative to control
[4] = target: Cyclin-dependent kinase 1/cyclin B1 (Homo sapiens) (UniProt P06493+P14635); test: Inhibition of full length recombinant human His-tagged CDK1/Cyclin B expressed in baculovirus expression system at 10 uM by Z'-LYTE assay relative to control
[5] = target: Casein kinase II subunit alpha (Homo sapiens) (UniProt P68400); test: Inhibition of full length recombinant human His-tagged CK2alpha1 expressed in baculovirus expression system at 10 uM by Z'-LYTE assay relative to control
[6] = target: Epidermal growth factor receptor (Homo sapiens) (UniProt P00533); test: Inhibition of recombinant human GST-tagged EGFR cytoplasmic domain (668 to 1210 residues) expressed in baculovirus expression system at 10 uM by Z'-LYTE assay relative to control
[7] = target: Ephrin type-A receptor 2 (Homo sapiens) (UniProt P29317); test: Inhibition of recombinant human GST-tagged EPHA2 cytoplasmic domain (560 to 976 residues) expressed in baculovirus expression system at 10 uM by Z'-LYTE assay relative to control
[8] = target: Receptor tyrosine-protein kinase erbB-2 (Homo sapiens) (UniProt P04626); test: Inhibition of recombinant human His-tagged HER2 cytoplasmic domain (676 to 1255 residues) expressed in baculovirus expression system at 10 uM by Z'-LYTE assay relative to control
[9] = target: Glycogen synthase kinase-3 beta (Homo sapiens) (UniProt P49841); test: Inhibition of full length recombinant human His-tagged GSK3beta expressed in baculovirus expression system at 10 uM by Z'-LYTE assay relative to control
[10] = target: Insulin-like growth factor 1 receptor (Homo sapiens) (UniProt P08069); test: Inhibition of recombinant human C-terminal His-tagged IGF1R cytoplasmic domain (960 to 1397 residues) expressed in baculovirus expression system at 10 uM by Z'-LYTE assay relative to control
[11] = target: Interleukin-1 receptor-associated kinase 4 (Homo sapiens) (UniProt Q9NWZ3); test: Inhibition of full length recombinant human His-tagged IRAK4 expressed in baculovirus expression system at 10 uM by Z'-LYTE assay relative to control
[12] = target: Tyrosine-protein kinase JAK3 (Homo sapiens) (UniProt P52333); test: Inhibition of recombinant human GST-tagged JAK3 catalytic domain (781 to 1124 residues) expressed in baculovirus expression system at 10 uM by Z'-LYTE assay relative to control
[13] = target: Vascular endothelial growth factor receptor 2 (Homo sapiens) (UniProt P35968); test: Inhibition of recombinant human His-tagged KDR cytoplasmic domain (789 to 1356 residues) expressed in baculovirus expression system at 10 uM by Z'-LYTE assay relative to control
[14] = target: Mast/stem cell growth factor receptor Kit (Homo sapiens) (UniProt P10721); test: Inhibition of KIT (unknown origin) at 10 uM by Z'-LYTE assay relative to control
[15] = target: Tyrosine-protein kinase Lck (Homo sapiens) (UniProt P06239); test: Inhibition of recombinant human C-terminal His-tagged LCK cytoplasmic domain expressed in baculovirus expression system at 10 uM by Z'-LYTE assay relative to control
[16] = target: High affinity nerve growth factor receptor (Homo sapiens) (UniProt P04629); test: Inhibition of recombinant human His-tagged TRKA cytoplasmic domain (441 to 796 residues) expressed in baculovirus expression system at 10 uM by Z'-LYTE assay relative to control
[17] = target: Hepatocyte growth factor receptor (Homo sapiens) (UniProt P08581); test: Inhibition of recombinant human His-tagged MET cytoplasmic domain (956 to 1390 residues) expressed in baculovirus expression system at 10 uM by Z'-LYTE assay relative to control
[18] = target: Dual specificity mitogen-activated protein kinase kinase 1 (Homo sapiens) (UniProt Q02750); test: Inhibition of full length recombinant human His-tagged MEK1 expressed in baculovirus expression system at 10 uM by Z'-LYTE assay relative to control
[19] = target: MAP kinase-activated protein kinase 2 (Homo sapiens) (UniProt P49137); test: Inhibition of full length recombinant human His-tagged MAPKAPK2 expressed in Escherichia coli at 10 uM by Z'-LYTE assay relative to control
[20] = target: Phosphorylase b kinase gamma catalytic chain, liver/testis isoform (Homo sapiens) (UniProt P15735); test: Inhibition of full length recombinant human GST-tagged PHKG2 expressed in baculovirus expression system at 10 uM relative to control
[21] = target: Serine/threonine-protein kinase pim-1 (Homo sapiens) (UniProt P11309); test: Inhibition of full length recombinant human His-tagged PIM1 expressed in baculovirus expression system at 10 uM relative to control
[22] = target: Protein kinase C beta type (Homo sapiens) (UniProt P05771); test: Inhibition of full length recombinant human PKCbeta1 expressed in baculovirus expression system at 10 uM relative to control
[23] = target: Proto-oncogene tyrosine-protein kinase receptor Ret (Homo sapiens) (UniProt P07949); test: Inhibition of recombinant human GST-tagged RET cytoplasmic domain (658 to 1114 residues) expressed in baculovirus expression system at 10 uM relative to control
[24] = target: Rho-associated protein kinase 1 (Homo sapiens) (UniProt Q13464); test: Inhibition of recombinant human GST-tagged ROCK1 catalytic domain (1 to 535 residues) expressed in baculovirus expression system at 10 uM relative to control
[25] = target: Ribosomal protein S6 kinase beta-1 (Homo sapiens) (UniProt P23443); test: Inhibition of recombinant human GST-tagged p70S6K catalytic domain (1 to 421 residues) expressed in baculovirus expression system at 10 uM relative to control
[26] = target: Aurora kinase A (Homo sapiens) (UniProt O14965); test: Inhibition of full length recombinant human His-tagged Aurora A expressed in baculovirus expression system at 10 uM by Z'-LYTE assay relative to control
[27] = target: Tyrosine-protein kinase SYK (Homo sapiens) (UniProt P43405); test: Inhibition of recombinant human N-terminal GST-tagged SYK cytoplasmic domain expressed in baculovirus expression system at 10 uM by Z'-LYTE assay relative to control

Vascular endothelial growth factor receptor 2 (Homo sapiens), sequence (P35968 whole entry, the tested form may be a part): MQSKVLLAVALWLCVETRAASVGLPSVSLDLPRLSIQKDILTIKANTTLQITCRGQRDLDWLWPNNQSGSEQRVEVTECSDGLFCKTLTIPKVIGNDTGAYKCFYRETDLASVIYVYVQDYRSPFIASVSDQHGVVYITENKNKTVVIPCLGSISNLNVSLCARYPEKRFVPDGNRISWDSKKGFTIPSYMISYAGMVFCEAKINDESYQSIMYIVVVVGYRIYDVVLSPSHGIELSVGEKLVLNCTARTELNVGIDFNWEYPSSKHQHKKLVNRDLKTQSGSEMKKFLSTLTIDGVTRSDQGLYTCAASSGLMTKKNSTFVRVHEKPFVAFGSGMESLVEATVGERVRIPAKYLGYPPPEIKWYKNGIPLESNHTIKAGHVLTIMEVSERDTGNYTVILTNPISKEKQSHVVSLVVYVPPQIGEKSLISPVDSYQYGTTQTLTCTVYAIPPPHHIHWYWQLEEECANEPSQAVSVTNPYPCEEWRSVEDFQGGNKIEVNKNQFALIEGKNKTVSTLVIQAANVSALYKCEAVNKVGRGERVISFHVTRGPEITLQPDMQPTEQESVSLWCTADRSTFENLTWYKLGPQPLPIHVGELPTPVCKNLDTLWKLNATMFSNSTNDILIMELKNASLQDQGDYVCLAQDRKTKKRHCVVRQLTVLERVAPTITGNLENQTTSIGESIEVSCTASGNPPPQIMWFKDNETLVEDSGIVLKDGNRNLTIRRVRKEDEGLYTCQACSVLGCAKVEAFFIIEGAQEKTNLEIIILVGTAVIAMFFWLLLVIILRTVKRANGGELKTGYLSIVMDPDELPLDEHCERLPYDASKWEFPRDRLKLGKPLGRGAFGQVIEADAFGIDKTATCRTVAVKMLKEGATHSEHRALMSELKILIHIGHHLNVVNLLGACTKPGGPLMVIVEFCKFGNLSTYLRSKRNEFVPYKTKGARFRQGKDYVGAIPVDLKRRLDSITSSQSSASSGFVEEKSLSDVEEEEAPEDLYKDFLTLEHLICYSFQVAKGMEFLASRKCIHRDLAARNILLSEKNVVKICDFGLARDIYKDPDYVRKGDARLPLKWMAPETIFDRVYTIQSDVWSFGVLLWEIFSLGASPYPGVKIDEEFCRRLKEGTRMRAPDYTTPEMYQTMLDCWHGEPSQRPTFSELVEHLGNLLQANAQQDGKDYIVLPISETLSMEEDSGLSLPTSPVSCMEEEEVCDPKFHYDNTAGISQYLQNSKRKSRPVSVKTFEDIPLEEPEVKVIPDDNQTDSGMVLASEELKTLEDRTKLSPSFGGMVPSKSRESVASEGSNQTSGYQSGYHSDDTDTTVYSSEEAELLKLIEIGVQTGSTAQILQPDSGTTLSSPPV
Tyrosine-protein kinase JAK3 (Homo sapiens), sequence (P52333 whole entry, the tested form may be a part): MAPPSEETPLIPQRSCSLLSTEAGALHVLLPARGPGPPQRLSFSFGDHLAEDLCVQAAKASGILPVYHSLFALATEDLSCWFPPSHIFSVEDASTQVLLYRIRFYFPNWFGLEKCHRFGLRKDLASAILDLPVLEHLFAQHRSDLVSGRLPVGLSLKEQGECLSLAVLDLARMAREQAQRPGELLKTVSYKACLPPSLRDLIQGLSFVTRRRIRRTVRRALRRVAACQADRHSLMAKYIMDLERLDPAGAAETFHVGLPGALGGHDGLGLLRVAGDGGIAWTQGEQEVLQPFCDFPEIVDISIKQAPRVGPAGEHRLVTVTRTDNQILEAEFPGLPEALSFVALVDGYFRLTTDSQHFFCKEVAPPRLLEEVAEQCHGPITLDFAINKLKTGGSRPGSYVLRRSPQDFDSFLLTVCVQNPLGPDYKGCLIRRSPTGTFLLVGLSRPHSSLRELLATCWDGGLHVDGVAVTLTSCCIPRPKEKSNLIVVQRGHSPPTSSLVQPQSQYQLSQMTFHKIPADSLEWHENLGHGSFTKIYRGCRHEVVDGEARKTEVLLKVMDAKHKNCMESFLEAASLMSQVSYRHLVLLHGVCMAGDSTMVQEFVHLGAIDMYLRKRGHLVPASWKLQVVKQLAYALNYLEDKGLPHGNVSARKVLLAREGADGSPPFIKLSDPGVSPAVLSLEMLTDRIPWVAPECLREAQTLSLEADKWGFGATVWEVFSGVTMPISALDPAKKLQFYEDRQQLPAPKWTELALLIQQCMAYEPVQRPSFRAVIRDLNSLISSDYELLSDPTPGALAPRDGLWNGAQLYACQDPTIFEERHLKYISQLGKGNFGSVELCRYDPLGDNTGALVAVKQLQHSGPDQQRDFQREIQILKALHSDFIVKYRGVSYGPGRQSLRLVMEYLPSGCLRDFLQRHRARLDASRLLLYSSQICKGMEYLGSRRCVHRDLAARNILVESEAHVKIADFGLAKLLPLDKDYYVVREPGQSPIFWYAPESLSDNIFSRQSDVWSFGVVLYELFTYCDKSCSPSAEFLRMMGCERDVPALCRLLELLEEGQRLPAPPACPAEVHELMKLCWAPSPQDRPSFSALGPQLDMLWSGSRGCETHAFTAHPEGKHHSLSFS
Epidermal growth factor receptor (Homo sapiens), sequence (P00533 whole entry, the tested form may be a part): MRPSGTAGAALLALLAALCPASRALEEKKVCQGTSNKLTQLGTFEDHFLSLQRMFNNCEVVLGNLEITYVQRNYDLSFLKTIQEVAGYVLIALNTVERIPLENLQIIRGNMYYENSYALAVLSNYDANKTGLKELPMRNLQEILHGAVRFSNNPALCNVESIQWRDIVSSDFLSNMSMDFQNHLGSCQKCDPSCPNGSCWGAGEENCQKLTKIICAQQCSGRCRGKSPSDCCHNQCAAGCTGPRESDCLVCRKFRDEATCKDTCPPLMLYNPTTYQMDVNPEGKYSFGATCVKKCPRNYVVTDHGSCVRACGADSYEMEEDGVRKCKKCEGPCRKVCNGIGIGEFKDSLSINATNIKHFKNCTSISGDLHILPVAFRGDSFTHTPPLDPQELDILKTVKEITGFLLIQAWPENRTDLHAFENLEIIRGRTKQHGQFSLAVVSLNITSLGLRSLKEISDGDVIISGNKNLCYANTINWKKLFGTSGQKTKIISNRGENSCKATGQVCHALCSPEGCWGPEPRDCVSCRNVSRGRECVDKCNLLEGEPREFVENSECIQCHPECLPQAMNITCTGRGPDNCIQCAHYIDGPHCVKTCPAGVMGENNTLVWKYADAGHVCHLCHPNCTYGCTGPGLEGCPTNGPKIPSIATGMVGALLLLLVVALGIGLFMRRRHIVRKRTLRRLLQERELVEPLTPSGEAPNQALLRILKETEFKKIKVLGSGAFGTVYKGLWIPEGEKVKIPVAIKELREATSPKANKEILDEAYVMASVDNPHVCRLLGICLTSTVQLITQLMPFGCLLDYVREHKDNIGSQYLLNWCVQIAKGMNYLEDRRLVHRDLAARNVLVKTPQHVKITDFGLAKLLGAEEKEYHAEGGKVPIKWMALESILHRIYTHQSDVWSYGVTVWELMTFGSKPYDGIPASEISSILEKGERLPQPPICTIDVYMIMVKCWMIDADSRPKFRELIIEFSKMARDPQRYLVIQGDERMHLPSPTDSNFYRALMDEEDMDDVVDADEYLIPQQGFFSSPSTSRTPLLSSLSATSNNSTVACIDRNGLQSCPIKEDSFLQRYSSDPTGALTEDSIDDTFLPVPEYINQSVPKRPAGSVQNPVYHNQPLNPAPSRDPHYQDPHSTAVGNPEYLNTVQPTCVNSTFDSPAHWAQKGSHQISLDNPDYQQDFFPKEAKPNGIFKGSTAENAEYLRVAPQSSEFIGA
Mitogen-activated protein kinase 14, sequence (Q16539 whole entry): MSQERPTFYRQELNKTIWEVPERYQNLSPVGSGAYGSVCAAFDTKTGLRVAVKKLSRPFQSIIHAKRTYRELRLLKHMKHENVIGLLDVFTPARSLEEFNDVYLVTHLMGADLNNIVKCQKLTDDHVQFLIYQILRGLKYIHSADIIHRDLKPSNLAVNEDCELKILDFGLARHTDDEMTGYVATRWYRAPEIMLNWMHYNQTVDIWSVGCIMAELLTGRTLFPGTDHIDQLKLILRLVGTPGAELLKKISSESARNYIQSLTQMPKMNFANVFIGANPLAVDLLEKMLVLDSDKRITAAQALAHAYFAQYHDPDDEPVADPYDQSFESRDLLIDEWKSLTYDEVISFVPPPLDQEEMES
Mast/stem cell growth factor receptor Kit (Homo sapiens), sequence (P10721 whole entry, the tested form may be a part): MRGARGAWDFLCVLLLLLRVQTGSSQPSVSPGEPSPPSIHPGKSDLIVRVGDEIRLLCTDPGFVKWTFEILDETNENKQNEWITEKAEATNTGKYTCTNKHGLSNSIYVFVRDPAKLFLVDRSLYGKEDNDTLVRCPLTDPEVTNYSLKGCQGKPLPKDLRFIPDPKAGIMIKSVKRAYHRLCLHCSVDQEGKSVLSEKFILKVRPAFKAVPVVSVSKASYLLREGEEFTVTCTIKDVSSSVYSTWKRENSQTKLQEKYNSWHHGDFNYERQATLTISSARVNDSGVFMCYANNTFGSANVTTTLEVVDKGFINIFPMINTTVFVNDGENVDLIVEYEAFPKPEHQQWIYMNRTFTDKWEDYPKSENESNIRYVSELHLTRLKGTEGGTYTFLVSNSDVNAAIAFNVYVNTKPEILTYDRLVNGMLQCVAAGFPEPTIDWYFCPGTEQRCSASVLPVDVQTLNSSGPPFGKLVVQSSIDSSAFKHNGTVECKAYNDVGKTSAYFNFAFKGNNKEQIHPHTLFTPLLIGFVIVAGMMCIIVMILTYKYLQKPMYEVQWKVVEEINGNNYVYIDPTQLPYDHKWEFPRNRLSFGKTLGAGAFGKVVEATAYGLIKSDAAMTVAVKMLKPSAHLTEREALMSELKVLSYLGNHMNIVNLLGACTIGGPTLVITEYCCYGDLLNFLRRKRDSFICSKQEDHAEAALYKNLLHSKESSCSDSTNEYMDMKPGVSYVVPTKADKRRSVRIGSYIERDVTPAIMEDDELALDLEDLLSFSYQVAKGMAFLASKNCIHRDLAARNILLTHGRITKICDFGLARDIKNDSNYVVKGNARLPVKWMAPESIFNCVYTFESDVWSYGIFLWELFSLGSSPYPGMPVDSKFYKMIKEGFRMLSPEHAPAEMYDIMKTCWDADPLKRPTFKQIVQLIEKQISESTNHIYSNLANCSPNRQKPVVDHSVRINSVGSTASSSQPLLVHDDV

inhibition [1]: 37% | inhibition [2]: 5% | inhibition [3]: 3% | inhibition [4]: 8% | inhibition [5]: 3% | inhibition [6]: 1% | inhibition [7]: 9% | inhibition [8]: -4% | inhibition [9]: 7% | inhibition [10]: 2% | inhibition [11]: 3% | inhibition [12]: -1% | inhibition [13]: 12% | inhibition [14]: 3% | inhibition [15]: 10% | inhibition [16]: 2% | inhibition [17]: 14% | inhibition [18]: 2% | inhibition [19]: 8% | inhibition [20]: 2% | inhibition [21]: 3% | inhibition [22]: 1% | inhibition [23]: 7% | inhibition [24]: 2% | inhibition [25]: 1% | inhibition [26]: 6% | inhibition [27]: -3%
Compound: CC1=Nc2c(Sc3ccccc3)ncnc2Sc2ccccc21
